# Results as given in patent publication US10435376B2, “Derivatives of 1H-imidazole-4,5-dicarboxamide and use thereof in preparation of anticoccidial drugs” (GUANGZHOU INSIGHTER BIOTECHNOLOGY CO., LTD., priority 2015, dated 2019).
# What was measured:
# Format in all cases: in vivo
# Eimeria acervulina = test: Inhibitory effects of the derivatives on Eimeria acervulina of chicken; conditions: for anticoccidial activity in view of survival rate, relative weight gain and feed conversion ratio: 60 ppm, E. acervulina; for responders at 60 ppm, 60 µg/mL / response vs control in vivo at 60 ppm, 60 µg/mL: Eimeria acervulina, 168 h; for responders at 60 ppm, 60 µg/mL / response vs control in vivo at 60 ppm, 60 µg/mL / Feed conversion ratio: broilers, 60 ppm in feed, 400,000 E. acervulina oocysts; for responders at 60 ppm, 60 µg/mL: 7 days after inoculation, read-out: Survival rate (%); for response vs control in vivo at 60 ppm, 60 µg/mL: feed or water, read-out: Relative weight gain (%)
# Procedure: (§1) Relative weight gain (%): The broilers were weighed at the beginning and the end of the trial to calculate the average weight gain and relative weigh gain. Relative weight gain=(average weight gain of each group/average weight gain of group 1)×100%.
# (§2) Deaths of the broilers: Necropsy was performed and the amount of dead broilers in each group was recorded to calculate the survival rate. Survival rate=(total amount of the broilers in each group−amount of deaths caused by coccidial infection)/total amount of the broilers in each group×100%.
# One-day-old yellow-feather fast-growing broilers were raised in a coccidia-free environment, and divided into groups for trial at the age of 18 days when no coccidian oocysts were detected by microscopy in their faeceas. Weak or overweight broilers were removed, and healthy broilers were divided into 10 groups with 50 broilers in each group and weight difference between each two broilers was below 20 g. Groups 1 and 2 were respectively a control group that the broilers were neither infected nor treated, and a control group that the broilers were infected but not treated. Groups 3 to 10 were respectively administrated with different derivatives. The broilers were given ad libitum access to feed and water when the feed was added with different medicines according to Table 3 at the day the broilers were divided. 24 Hours after the trial began, 400,000 sporulated Eimeria acervulina oocysts were inoculated via an oral gavage into the crop of every broiler in each group except group 1. The trial was ended 7 days after the inoculation. Relative weight gain (%), survival rate (%) and feed conversion ratio were evaluated.
# Eimeria tenella [1] = test: Inhibitory effects of the derivatives on Eimeria tenella of chicken (60 ppm in feed); conditions: for anticoccidial activity in view of survival rate, bloody stool score and relative weight gain: 60 ppm, E. tenella; for responders at 60 ppm, 60 µg/mL / response vs control in vivo at 60 ppm, 60 µg/mL: Eimeria tenella, 168 h; for responders at 60 ppm, 60 µg/mL / response vs control in vivo at 60 ppm, 60 µg/mL / Score (bloody stool score): broilers, 60 ppm in feed, 250,000 E. tenella oocysts; for responders at 60 ppm, 60 µg/mL: 7 days after inoculation, read-out: Survival rate (%); for response vs control in vivo at 60 ppm, 60 µg/mL: relative to group 1 (not infected, not treated), read-out: Relative weight gain (%); for Score (bloody stool score): 5 days after inoculation
# Text: (§3) One-day-old yellow-feather fast-growing broilers were raised in a coccidia-free environment, and divided into groups for trial at the age of 18 days when no coccidian oocysts were detected by microscopy in their faeceas. Weak or overweight broilers were removed, and healthy broilers were divided into 30 groups with 50 broilers in each group and weight difference between each two broilers was below 20 g. Groups 1 and 2 were respectively a control group that the broilers were neither infected nor treated, and a control group that the broilers were infected but not treated. Groups 3 to 30 were respectively administrated with different derivatives. The broilers were given ad libitum access to feed and water when the feed was added with different medicines according to Table 1 at the day the broilers were divided. 24 Hours after the trial began, 250,000 sporulated Eimeria tenella oocysts were inoculated via an oral gavage into the crop of every broiler in each group except group 1. Bloody stool score was measured 5 days after the inoculation and the trial was ended 7 days after the inoculation. Relative weight gain (%), survival rate (%) and the bloody stool score were evaluated.
# (§4) Bloody stool score: 0, no bloody stool was observed; 1, bloody stool below 25%; 2, 25 to 50% of bloody stool; 3, 50 to 75% of bloody stool; and 4, bloody stool over 75%.
# as §1, §2
# Eimeria necatrix = test: Inhibitory effects of the derivatives on Eimeria necatrix of chicken; conditions: for anticoccidial activity in view of survival rate, bloody stool score and relative weight gain: 60 ppm, E. necatrix; for responders at 60 ppm, 60 µg/mL / response vs control in vivo at 60 ppm, 60 µg/mL: Eimeria necatrix, 168 h; for responders at 60 ppm, 60 µg/mL: read-out: Survival rate (%); for response vs control in vivo at 60 ppm, 60 µg/mL: feed or water, read-out: Relative weight gain (%); for response vs control in vivo at 60 ppm, 60 µg/mL / Score (bloody stool score): broilers, 60 ppm in feed, 100,000 E. necatrix oocysts; for Score (bloody stool score): 5 days after inoculation
# Procedure: as §4, §1, §2
# as §3, with “into 10” for “into 30”, “to 10” for “to 30”, “Table 4” for “Table 1”, “began, 100,000” for “began, 250,000”, “Eimeria necatrix” for “Eimeria tenella”, “were evaluated (according to embodiment 2).” for “were evaluated.”
# Eimeria tenella [2] = test: Inhibitory effects of the derivatives of different dosages on Eimeria tenella of chicken; set-up: key to Score (bloody stool score): 0 = no bloody stool to 4 = bloody stool over 75%; conditions: broilers, E. tenella; for Score (bloody stool score): 5 days after inoculation
# Procedure: as §4, §1, §2
# as §3, with “divided into 16 groups with” for “divided into 30 groups with”, “3 to 16 were respectively” for “3 to 30 were respectively”, “with different kinds or different dosages of derivatives. The” for “with different derivatives. The”, “to Table 2 at the” for “to Table 1 at the”, “score were evaluated (according to embodiment 2).” for “score were evaluated.”
SMILES,"anticoccidial activity in view of survival rate, relative weight gain and feed conversion ratio (Eimeria acervulina)","responders at 60 ppm, 60 µg/mL (Eimeria acervulina) [%]","response vs control in vivo at 60 ppm, 60 µg/mL (Eimeria acervulina) [%]",Feed conversion ratio (Eimeria acervulina),"anticoccidial activity in view of survival rate, bloody stool score and relative weight gain (Eimeria tenella [1])","responders at 60 ppm, 60 µg/mL (Eimeria tenella [1]) [%]","response vs control in vivo at 60 ppm, 60 µg/mL (Eimeria tenella [1]) [%]",Score (bloody stool score) (Eimeria tenella [1]),"anticoccidial activity in view of survival rate, bloody stool score and relative weight gain (Eimeria necatrix)","responders at 60 ppm, 60 µg/mL (Eimeria necatrix) [%]","response vs control in vivo at 60 ppm, 60 µg/mL (Eimeria necatrix) [%]",Score (bloody stool score) (Eimeria necatrix),Relative weight gain (%) (Eimeria tenella [2]; 5 ppm in feed),Survival rate (%) (Eimeria tenella [2]; 5 ppm in feed),Score (bloody stool score) (Eimeria tenella [2]; 5 ppm in feed),Relative weight gain (%) (Eimeria tenella [2]; 10 ppm in feed),Survival rate (%) (Eimeria tenella [2]; 10 ppm in feed),Score (bloody stool score) (Eimeria tenella [2]; 10 ppm in feed),Relative weight gain (%) (Eimeria tenella [2]; 20 ppm in feed),Survival rate (%) (Eimeria tenella [2]; 20 ppm in feed),further results
"NC(=O)c1ncn(Cc2ccc(Cl)cc2)c1C(N)=O [IST15037, 1-(4-chlorobenzyl)-1H-imidazole-4,5-dicarboxamide]",highest anticoccidial activities,100,98.5,2.148,highest anticoccidial activities,100,99.2,0,highest anticoccidial activities,100,98.9,0,,,,,,,,,
"NC(=O)c1ncn(Cc2ccc([N+](=O)[O-])cc2)c1C(N)=O [IST15045, 1-(4-nitrobenzyl)-1H-imidazole-4,5-dicarboxamide]",highest anticoccidial activities,100,98.7,2.158,highest anticoccidial activities,100,104,0,highest anticoccidial activities,100,102,0,,,,,,,,,
"NC(=O)c1ncn(Cc2ccccc2F)c1C(N)=O [IST15043, 1-(2-fluorobenzyl)-1H-imidazole-4,5-dicarboxamide]",highest anticoccidial activities,100,99.4,2.139,highest anticoccidial activities,100,98.7,0,highest anticoccidial activities,100,102,0,,,,,,,,,
"NC(=O)c1ncn(Cc2c(F)cccc2Cl)c1C(N)=O [IST15031, 1-(2-chloro-6-fluorobenzyl)-1H-imidazole-4,5-dicarboxamide]",highest anticoccidial activities,100,94.8,2.179,highest anticoccidial activities,100,95.8,1 (bloody stool below 25%),highest anticoccidial activities,100,92.5,1 (bloody stool below 25%),67.8,76,4 (bloody stool over 75%),72.3,88,4 (bloody stool over 75%),79.8,100,Score (bloody stool score) (Eimeria tenella [2]; 20 ppm in feed): 2 (25 to 50% of bloody stool); Relative weight gain (%) (Eimeria tenella [2]; 50 ppm in feed): 90.5%; Survival rate (%) (Eimeria tenella [2]; 50 ppm in feed): 100%; Score (bloody stool score) (Eimeria tenella [2]; 50 ppm in feed): 1 (bloody stool below 25%); Relative weight gain (%) (Eimeria tenella [2]; 100 ppm in feed): 98.9%; Survival rate (%) (Eimeria tenella [2]; 100 ppm in feed): 100%; Score (bloody stool score) (Eimeria tenella [2]; 100 ppm in feed): 0; Relative weight gain (%) (Eimeria tenella [2]; 200 ppm in feed): 102.5%; Survival rate (%) (Eimeria tenella [2]; 200 ppm in feed): 100%; Score (bloody stool score) (Eimeria tenella [2]; 200 ppm in feed): 0; Relative weight gain (%) (Eimeria tenella [2]; 500 ppm in feed): 100.4%; Survival rate (%) (Eimeria tenella [2]; 500 ppm in feed): 100%; Score (bloody stool score) (Eimeria tenella [2]; 500 ppm in feed): 0
"NC(=O)c1ncn(Cc2ccc(C(F)(F)F)cc2)c1C(N)=O [IST15051, 1-(4-(trifluromethyl)benzyl)-1H-imidazole-4,5-dicarboxamide]",highest anticoccidial activities,100,102,2.109,highest anticoccidial activities,100,101,0,highest anticoccidial activities,100,99.5,0,80.4,96,4 (bloody stool over 75%),88.6,100,2 (25 to 50% of bloody stool),95.9,100,Score (bloody stool score) (Eimeria tenella [2]; 20 ppm in feed): 0; Relative weight gain (%) (Eimeria tenella [2]; 50 ppm in feed): 98.7%; Survival rate (%) (Eimeria tenella [2]; 50 ppm in feed): 100%; Score (bloody stool score) (Eimeria tenella [2]; 50 ppm in feed): 0; Relative weight gain (%) (Eimeria tenella [2]; 100 ppm in feed): 101.2%; Survival rate (%) (Eimeria tenella [2]; 100 ppm in feed): 100%; Score (bloody stool score) (Eimeria tenella [2]; 100 ppm in feed): 0; Relative weight gain (%) (Eimeria tenella [2]; 200 ppm in feed): 99.4%; Survival rate (%) (Eimeria tenella [2]; 200 ppm in feed): 100%; Score (bloody stool score) (Eimeria tenella [2]; 200 ppm in feed): 0; Relative weight gain (%) (Eimeria tenella [2]; 500 ppm in feed): 103.6%; Survival rate (%) (Eimeria tenella [2]; 500 ppm in feed): 100%; Score (bloody stool score) (Eimeria tenella [2]; 500 ppm in feed): 0
